Experimental data as given in patent US9907758B2, “Process for preparing solid lipid sustained release nanoparticles for delivery of vitamins” (Department of Biotechnology (DBT), priority 2012, dated 2018).
Read-outs that look alike come from different tables or passages of the source.

Tests used:
[1] = In vivo pharmacokinetic studies, oral and subcutaneous; set-up: species or system male Wistar rats; conditions: for AUC(0-t): plasma
Protocol: In vivo pharmacokinetic studies were performed using male Wistar rats weighing 250-300 g. The protocol was duly approved by the Institutional Animal Ethics Committee (IAEC) of Panjab University, Chandigarh, India. The animals were divided into four groups (n=6). Group 1 was administered 2.5 Lacs International units (IU) subcutaneous retinoic acid and vitamin D3 SLNs simultaneously, Group 2 was also simultaneously administered 2.5 Lacs IU free retinoic acid and vitamin D3. Group 3 was administered simultaneously 1 Lac IU oral Retinoic acid and vitamin D3 SLNs, Group 4 was administered simultaneously 1 Lac IU oral free Retinoic acid and vitamin D3. The blood samples (0.5 mL) were withdrawn from sinus under clavicle and, collected into heparinized micro-centrifuge tubes (containing […] of 1000 IU heparin/mL of blood) at 0.5 h, 1 h, 2 h, 4 h, 8 h, 12 h, 24 h, 48 h, 72 h, 96 h, 120 h, 144 h, 168 h. After each sampling, 1 mL of dextrose-normal saline was administered to prevent changes in the central compartment volume and electrolytes. Plasma was separated by centrifuging the blood samples at 4000 rpm for 10 min at 4° C. After centrifugation, the plasma obtained was stored at −20° C. until analysis.
500 microliter blank plasma was taken and into it added 20 microliter stock standard dilutions of different concentrations (0.01 mcg to 1 mcg) (vortex) and added 400 microliter of chilled ethanol (vortex) and to it was added 2 ml (n-Hexane:ethylacetate (90:10) (Vortex) and the same was kept at −20° C. for 5 min followed by Cold centrifuge at 5000 rpm for 5 min finally separating the upper layer carefully and drying the solution under rotavapour/nitrogen gas, after drying add 250 microliter of acetonitrile and inject the sample to HPLC/UPLC. The method was applied for extraction procedure for Pharmacokinetic samples after giving SLNs and free drugs of Retinoic acid and vitamin D3 formulation to rats as oral/subcutaneous routes and sampling time points (0.5 h, 1 h, 2 h, 4 h, 8 h, 12 h, 24 h, 48 h, 72 h, 96 h, 120 h, 144 h, 168 h).

[2] = in vivo; cited from earlier work

For `CC1=C(/C=C/C(C)=C/C=C/C(C)=C/C(=O)O)C(C)(C)CCC1` [ATRA-S, all-trans retinoic acid], the Cmax ([1]; male, Wistar, 1 Lac IU, plasma ATRA, oral administration, rat, read-out: Cmax) was 151 ng/mL, the AUC(0-t) ([1]; male, Wistar, rat, po, 1 Lac I.U, plasma ATRA, single dose oral, 1 Lac I.U, rat, read-out: AUC (0-T)) was 357 ng·h/mL and the AUC(0-t) ([1]; male, Wistar, rat, po, 1 Lac I.U, plasma ATRA, single dose oral, 1 Lac I.U, rat, read-out: AUC (T-∞)) was 714 ng·h/mL. For the same molecule, the AUC(0-t) ([1]; male, Wistar, rat, po, 1 Lac IU, plasma ATRA, oral administration, rat, read-out: AUC0-t) was 356 ng·h/mL, the AUC(0-t) ([1]; male, Wistar, rat, po, 1 Lac IU, plasma ATRA, oral administration, rat, read-out: AUCt-∞) was 713 ng·h/mL and the AUC(0-t) ([1]; male, Wistar, rat, sc, 2.5 Lac I.U, plasma ATRA, single dose subcutaneous, 2.5 Lac I.U, rat, read-out: AUC (0-T)) was 2820 ng·h/mL. It also gave an AUC(0-t) ([1]; male, Wistar, rat, sc, 2.5 Lac I.U, plasma ATRA, single dose subcutaneous, 2.5 Lac I.U, rat, read-out: AUC (T-∞)) of 2950 ng·h/mL, an AUC(0-t) ([1]; male, Wistar, rat, sc, 2.5 Lacs IU, plasma ATRA, single dose subcutaneous, rat, read-out: AUC0-t) of 2820 ng·h/mL and an AUC(0-inf) ([1]; male, Wistar, sc, 2.5 Lacs IU, plasma ATRA, single dose subcutaneous, rat) of 2950 ng·h/mL. It also gave a Cmax ([1]; male, Wistar, sc, 2.5 Lacs IU, plasma ATRA, single dose subcutaneous, rat, read-out: Cmax) of 1390 ng/mL, a Cmax ([1]; male, Wistar, sc, plasma ATRA, single dose subcutaneous injection, 2.5 Lac I.U, rat, read-out: Cmax) of 1400 ng/mL and a half-life ([1]; male, Wistar, sc, plasma ATRA, single dose subcutaneous, 2.5 Lac I.U, rat) of 57 min. For the same molecule, the Tmax ([1]; male, Wistar, sc, plasma ATRA, single dose subcutaneous, 2.5 Lac I.U, rat, read-out: Tmax) was 30 min, the half-life ([1]; male, Wistar, plasma ATRA, single dose oral, 1 Lac I.U, rat) was 290 min and the Cmax ([1]; male, Wistar, plasma ATRA, single dose oral, 1 Lac I.U, rat, read-out: Cmax) was 151 ng/mL. The Tmax ([1]; male, Wistar, plasma ATRA, single dose oral, 1 Lac I.U, rat, read-out: Tmax) was 54 min, the Kel ([1]; plasma ATRA, single dose oral, 1 Lac I.U, rat) was 0.17 and the Kel ([1]; plasma ATRA, single dose subcutaneous, 2.5 Lac I.U, rat) was 0.74. For the same molecule, the “plasma ATRA dropped to an undetectable level at, after dosing” value ([1]; rat plasma) was 4 h.
For `C=C1CC[C@H](O)C/C1=C/C=C1\CCC[C@]2(C)[C@@H]([C@H](C)CCCC(C)C)CC[C@@H]12` [Vitamin D3-S, cholecalciferol], the Cmax ([1]; male, Wistar, rat, in vivo, po) was under 25 ng/mL, the Tmax ([1]; male, Wistar, rat, in vivo, po) was 0 min and the Cmax ([1]; male, Wistar, rat, in vivo, sc) was under 25 ng/mL. It also gave a Tmax ([1]; male, Wistar, rat, in vivo, sc) of 0 min, a Kel ([1]; plasma vitamin D3, single dose oral, 1 Lac IU, rat) of 0.0 and a Kel ([1]; plasma vitamin D3, single dose subcutaneous, 2.5 Lac I.U, rat) of 0.0. For the same molecule, the “CL” value ([1]; rat, in vivo, po) was 0.0 mL/h/g, the T1/2 ([1]; rat, in vivo, po) was 0 h and the “CL” value ([1]; rat, in vivo, sc) was 0.0 mL/h/g. For the same molecule, the T1/2 ([1]; rat, in vivo, sc) was 0 h.
For `C=C1CC[C@H](O)C/C1=C/C=C1\CCC[C@]2(C)[C@@H]([C@H](C)CCCC(C)C)CC[C@@H]12` [vitamin D3, cholecalciferol], the Cmax in plasma [2] is listed as “not more than 75 ng/ml”.
